Where a name gives a salt, the structure may show the parent alone. Read-outs that look alike come from different tables or passages of the source.
Columns and labels:
[1] = Rat plasma L-dopa and bioavailability after rectal microenema with carbidopa (Example 2); set-up: species or system rats; settings: in vivo
Protocol: The experimental conditions of Example 1 were repeated, except that each formulation also contained 0.5 mg carbidopa, a decarboxylase inhibitor which is included to decrease L-dopa metabolism.

[2] = L-dopa bioavailability in Beagle dogs after rectal administration, oral carbidopa pretreatment (Example 3); type: in vivo; settings: in words
Protocol: Aqueous formulations (pH 5.5, 0.1% ascorbic acid, 0.1 ml) containing […] L-dopa ethyl ester HCl (equivalent to 50 mg L-dopa) were prepared for administration to Beagle dogs. Each dog received the rectal formulation following a 3-day pretreatment with oral carbidopa (25 mg b.i.d.). Blood samples were collected for 360 minutes and plasma L-dopa levels determined by HPLC.

[3] = rat, in vivo
Protocol: Aqueous microenemas (250 μl) containing either 2.0 mg L-dopa or 2.66 mg L-dopa ethyl ester HCl (equivalent to 2.0 mg L-dopa) were prepared. The solutions were adjusted to pH 5.5 and contained 0.02% ascorbic acid to prevent oxidation. Blood samples were collected following rectal administration to anesthetized rats, and plasma L-dopa determined by HPLC.

[4] = dog, in vivo; cited from earlier work

Question: For `CCOC(=O)[C@@H](N)Cc1ccc(O)c(O)c1` [L-dopa ethyl ester HCl], which “Percent L-dopa Bioavailability” value [1] is on record?
Answer: 62 ± 32.7%

Question: What about the plasma drug levels [2] of the same compound?
Answer: significant increase in plasma drug levels

Question: What about the “Percent L-dopa Bioavailability” value [3] of the same compound?
Answer: 12 ± 2.4%

Question: What about the “plasma levels of L-dopa” value [3] of the same compound?
Answer: significantly higher plasma levels of L-dopa

Question: And the “absorption by the rectal route in dogs” value [4]?
Answer: not significantly absorbed in dogs

Source: patent US4873263A, “Rectally absorbable form of L-dopa” (priority 1988, dated 1989)
